Measurements taken from PMC13195669, “GPR3 Ligands Discovered through Combined Virtual and Conformational Biosensor-Based Screening” (Journal of the American Chemical Society, 2026).

Target: T1, GPR12 (Homo sapiens, UniProt P47775)
T1 construct: expressed in transfected cells; host or cells: HEK293A, transient
T1 sequence (P47775 1-334): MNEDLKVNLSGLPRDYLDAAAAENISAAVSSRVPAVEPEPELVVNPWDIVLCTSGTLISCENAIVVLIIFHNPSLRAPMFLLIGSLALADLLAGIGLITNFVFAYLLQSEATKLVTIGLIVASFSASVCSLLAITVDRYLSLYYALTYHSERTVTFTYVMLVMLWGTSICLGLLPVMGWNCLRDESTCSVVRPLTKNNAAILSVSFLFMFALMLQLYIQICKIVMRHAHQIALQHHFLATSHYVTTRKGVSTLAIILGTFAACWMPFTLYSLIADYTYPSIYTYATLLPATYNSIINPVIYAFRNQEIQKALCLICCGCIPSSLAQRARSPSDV
Test: cAMP GloSensor 22F, GPR12-transfected HEK293A cells
Assay type: cell-based
Excerpt: Next, we used the classical cAMP GloSensor technology to assess the target selectivity profile of 33. […] In addition, we tested the effects of 33 on cAMP changes mediated by agonist-stimulated GPCRs phylogenetically close to GPR3 and coupling to Gs or Gi/o proteins. […]
conditioning and no constraints were applied. The poses were visually inspected and the most favorable one that coincides with the co-solved ligand according to the available structures was chosen.
Plasmids and molecular cloning
The H187-EPAC-FRET sensor7 was kindly provided by K. Jalink (The Netherlands Cancer Institute, Amsterdam, The Nether-lands). The BRET-based cAMP sensor CAMYEL8 was kindly provided by Laura Humphrys (University of Regensburg, Regens-burg, Germany). Plasmids encoding the conformational biosensors α2AAR- and β2AR-HaloTag/Nluc9 and the Gs heterotrimer dissociation sensor10 were previously described. The expression plasmid encoding N-terminally HA-tagged GPR3 (cat. no.
#GPR003TN00) on a pcDNA3.1+ vector was obtained from the cDNA resource center (cdna.org). The Nluc and HaloTag in-serts were amplified with overhanging restriction sites from β2AAR- HaloTag/Nluc and ligated to the full-length C-terminus or inserted into icl3 of GPR3, respectively, to obtain the conformational biosensor GPR3-HaloTag/Nluc. […]

## N=c1n(Cc2ccccc2)c2ccccc2n1CC1CC1 [compound 33]
  receptor-specific change in cAMP, GPR12: no receptor-specific changes in cAMP levels below 100 μM
